Legend:
[1] = system: live pathological cells (LPC) in bone marrow samples of AML patients; assay: PharmaFlow PM test: ex vivo drug sensitivity of whole bone marrow samples, population pharmacodynamic models; type: cell-based, human; conditions: typical population value; for EC50: Homo sapiens, AML bone marrow samples, 48 h incubation; for EMAX (maximum fractional decrease in LPC): set to 1 in the model; for EMAX (maximum fractional decrease in LPC) / γ (steepness of LPC vs concentration curve): 48 h
Procedure: Ex vivo drug sensitivity analysis was made using the PharmaFlow platform (previously termed ExviTech®) maintaining the bone marrow (BM) microenvironment. A minimum BM sample volume between one and two mL was collected by aspiration at AML diagnosis, before starting induction chemotherapy, and was processed by an automated method 24 hours after extraction. Samples were incubated with CYT, IDA and/or CYT+IDA for 48 hours. A more detailed description of the procedure has been published elsewhere (Bennett, et al 2014).
Evaluation of drug response was done by counting the number of live pathological cells (LPC) remaining after incubation at increasing drug concentrations (Upton and Mould 2014). Dying cells (apoptosis) were excluded using Annexin V-FITC. Pharmacological responses were analyzed using PD population-based models (Upton and Mould 2014) which essentially perform the fitting of the dependent variable (natural log of LPC) in a non-linear mixed-effects model to derive typical population values (fixed effects) and the magnitude of inter-patient and residual variability (random effects).
Model development was performed with the first-order conditional estimation method using interaction option with the software NONMEM (v7.2) (Beal, et al 1989-2001), according to the following equation: […]
Where LPC0 (LCTi0) parameter refers to the number of LPC (LCTi) after incubation in the absence of drug, Emax represents the maximum fractional decrease in LPC that the drug can elicit, EC50, is the drug concentration exerting half of Emax, and γ is the parameter governing the steepness of the LPC vs drug concentration (C) curve. For interaction analysis a Surface Interaction model (Greco, et al 1995) was used to estimate the degree of synergy, referred as a parameter, between both drugs. Interpatient variability (IPV) associated to all parameters was described by means of an exponential model of the components of variance. An additive error structure was used for the residual variability. Population PD models were built with bone marrow (BM) samples from 473 patients that were incubated with CYT, 456 with IDA and 443 with CYT+IDA. Bayesian estimation methods were then used to retrieve individual patient parameters based on their available exposure-response measurements in conjunction with the PD population parameters.
Individual response profiles normalized with respect to LPC0 (LCTi0), were integrated between the concentration points corresponding to the 20th and 80th percentiles of the distribution of estimated individual EC50 values, to obtain the values of the areas under the curves (AUCs) that were used as a descriptor of the ex vivo drug effect (i.e. the higher the AUC, the lower the cytotoxic effect (efficacy or potency) of the drug.

[2] = system: first-line AML patients treated with CYT+IDA; assay: Validation of PM Test score vs clinical response in 112 first-line AML samples; type: in vivo, human; conditions: 112 AML patients treated with CYT+IDA
From the text: The Precision Medicine (PM) Test as described ranks treatments by a score that estimates the activity of each treatment across a population of patient samples. Higher score represents more ex vivo sensitivity to treatment, while lower score represents less ex vivo sensitivity to treatment, i.e. more ex vivo resistance. A particular format of the results of the PM Test is shown in FIG. 19, panels A and B, wherein the ranking of treatments by activity score from 100%=best to 0%=worst is shown (score may be represented graphically using a colour/tone gradient or categorisation). The following 3 categories are identified:
To validate the predictive power of these PM Test score results, the set of 123 samples treated homogeneously with CYT+IDA that were used in the correlation study of Example 1 were employed. Only 112 samples were used for validation. To evaluate the predictive power of the PM Test score, in the format shown in FIG. 19, panel A referring to a sensitive patient we can only use patients predicted to be sensitive or resistant. Treatments having intermediate scores are not considered sufficiently strong to predict any response. In the case of intermediate scores, other factors such as pharmacokinetics may be more important than the score. On the other hand, extreme scores are more likely to prevail over other factors such as pharmacokinetics.
The set of data of 112 patients treated with CYT+IDA represents a 1st line treatment of AML with a 72% response rate. This means that 72% of these 112 patients achieved Complete Remission (CR) clinically. The majority of patients were sensitive, with fewer resistant patients. Thus, the statistics are improved by calculating the % of cases in which the PM Test score predicted patients to be sensitive to the ex vivo treatment. This means selecting only the treatments to which the patient is expected to be very sensitive, with scores between 80-100%. The % of accurate prediction of sensitive (responsive) patients is referred as the Negative Predicted Value (NPV).
Samples whose score are between this variable threshold and 100% are analysed and predicted as sensitive because they have the top score. The results are shown for the monotherapies CYT and IDA, and for the combination treatment. Focus was placed on the combination treatment CYT+IDA that was administered to patients. Columns 8 to 10 of Table 4 show the results for the combined treatment CYT+IDA for different thresholds. The lowest threshold 55%, which means between 55 and 100%, identifies 93 out of the 112 samples, that would be predicted as sensitive. […] Thus, the prediction accuracy or NPV is 77/93=82.8%. As the threshold is increased (descending the 1st column of Table 4), the range of scores included is narrowed because the maximum is always 100%. Consequently, as the threshold is increased, the total number of samples included diminishes, reaching 0 samples at 100% (100-100%) and 18 samples at 95%. The decrease can be observed in the number of either sensitive or resistant samples (descending columns 8 and 9 of Table 4). […] Thus, the higher the score, the better the prediction (moreover, the intermediate sensitivity values provide less accurate prediction than the extreme values).

[3] = system: bone marrow samples of acute lymphoid leukemia (ALL) patients; assay: Ex vivo test of single drugs, EC50 compared with population distribution, acute lymphoid leukemia samples; type: cell-based, human; conditions: ALL second line patient VIVIA-PMALL04001, 48 h
Procedure: Bone marrow samples were obtained from three adult patients diagnosed with MM (VIVIA-PMMM010431, VIVIA-PMMM060111 and VIVIA-PMMM130061) and three adult patients diagnosed with ALL (VIVIA-PMALL07002, VIVIA-PMALL04001 and VIVIA-PMALL09001). Following the same experimental design as described for examples 1 and 3, said bone marrow samples were incubated for 48 h in well plates containing the single drugs shown in FIGS. 21 to 26. After the measurement of pathological populations by flow cytometry, pharmacological response parameters were estimated using population pharmacodynamic models. The most representative parameter of drug potency, the EC50, was used for a comparative analysis of the results provided by said bone marrow samples with respect to the statistical distribution of the same parameter observed in a population of samples and stored in the database. Such populations varied in size depending on the drug, being always over one hundred individuals in the case of MM and between 15 and 21 individuals in the case of ALL.

## Nc1ccn([C@@H]2O[C@H](CO)[C@@H](O)[C@@H]2O)c(=O)n1 [Cytarabine, cytarabine]
[1]
  EC50: 6.94 µM
  EMAX (maximum fractional decrease in LPC): 1
  γ (steepness of LPC vs concentration curve): 0.684
[2]; PM Test score ≥55
  % Sens. (percentage of patients sensitive to therapy, NPV): 84.8%
  Res. (number of patients resistant to therapy): 14
  Sens. (number of patients sensitive to therapy): 78
[2]; PM Test score ≥60
  % Sens. (percentage of patients sensitive to therapy, NPV): 85.7%
  Res. (number of patients resistant to therapy): 13
  Sens. (number of patients sensitive to therapy): 78
[2]; PM Test score ≥65
  % Sens. (percentage of patients sensitive to therapy, NPV): 85.4%
  Res. (number of patients resistant to therapy): 13
  Sens. (number of patients sensitive to therapy): 76
[2]; PM Test score ≥70
  % Sens. (percentage of patients sensitive to therapy, NPV): 85.1%
  Res. (number of patients resistant to therapy): 13
  Sens. (number of patients sensitive to therapy): 74
[2]; PM Test score ≥75
  % Sens. (percentage of patients sensitive to therapy, NPV): 86.1%
  Res. (number of patients resistant to therapy): 11
  Sens. (number of patients sensitive to therapy): 68
[2]; PM Test score ≥80
  % Sens. (percentage of patients sensitive to therapy, NPV): 86.1%
  Res. (number of patients resistant to therapy): 10
  Sens. (number of patients sensitive to therapy): 62
[2]; PM Test score ≥85
  % Sens. (percentage of patients sensitive to therapy, NPV): 87.1%
  Res. (number of patients resistant to therapy): 8
  Sens. (number of patients sensitive to therapy): 54
[2]; PM Test score ≥90
  % Sens. (percentage of patients sensitive to therapy, NPV): 85.2%
  Res. (number of patients resistant to therapy): 8
  Sens. (number of patients sensitive to therapy): 46
[2]; PM Test score ≥95
  % Sens. (percentage of patients sensitive to therapy, NPV): 83.7%
  Res. (number of patients resistant to therapy): 7
  Sens. (number of patients sensitive to therapy): 36
[2]; PM Test score ≥100
  Res. (number of patients resistant to therapy): 0
  Sens. (number of patients sensitive to therapy): 0
[3]
  ex vivo activity: intermediate-low activity

## CC(=O)[C@]1(O)Cc2c(O)c3c(c(O)c2[C@@H](O[C@H]2C[C@H](N)[C@H](O)[C@H](C)O2)C1)C(=O)c1ccccc1C3=O [Idarubicin, idarubicin]
[1]
  EC50: 0.087 µM
  EMAX (maximum fractional decrease in LPC): 1
  γ (steepness of LPC vs concentration curve): 1.14
[2]; PM Test score ≥55
  % Sens. (percentage of patients sensitive to therapy, NPV): 84.8%
  Res. (number of patients resistant to therapy): 12
  Sens. (number of patients sensitive to therapy): 67
[2]; PM Test score ≥60
  % Sens. (percentage of patients sensitive to therapy, NPV): 84.9%
  Res. (number of patients resistant to therapy): 11
  Sens. (number of patients sensitive to therapy): 62
[2]; PM Test score ≥65
  % Sens. (percentage of patients sensitive to therapy, NPV): 87.0%
  Res. (number of patients resistant to therapy): 9
  Sens. (number of patients sensitive to therapy): 60
[2]; PM Test score ≥70
  % Sens. (percentage of patients sensitive to therapy, NPV): 86.6%
  Res. (number of patients resistant to therapy): 9
  Sens. (number of patients sensitive to therapy): 58
[2]; PM Test score ≥75
  % Sens. (percentage of patients sensitive to therapy, NPV): 85.2%
  Res. (number of patients resistant to therapy): 9
  Sens. (number of patients sensitive to therapy): 52
[2]; PM Test score ≥80
  % Sens. (percentage of patients sensitive to therapy, NPV): 85.7%
  Res. (number of patients resistant to therapy): 8
  Sens. (number of patients sensitive to therapy): 48
[2]; PM Test score ≥85
  % Sens. (percentage of patients sensitive to therapy, NPV): 86.5%
  Res. (number of patients resistant to therapy): 7
  Sens. (number of patients sensitive to therapy): 45
[2]; PM Test score ≥90
  % Sens. (percentage of patients sensitive to therapy, NPV): 88.4%
  Res. (number of patients resistant to therapy): 5
  Sens. (number of patients sensitive to therapy): 38
[2]; PM Test score ≥95
  % Sens. (percentage of patients sensitive to therapy, NPV): 96.8%
  Res. (number of patients resistant to therapy): 1
  Sens. (number of patients sensitive to therapy): 30
[2]; PM Test score ≥100
  Res. (number of patients resistant to therapy): 0
  Sens. (number of patients sensitive to therapy): 0
[3]
  ex vivo activity: very potent activity

Source: US20210358575A1, “A METHOD FOR DETERMINING THE EFFICACY OF TREATMENT WITH A COMBINATION OF DRUGS IN A SUBJECT DIAGNOSED WITH A DISEASE AND A METHOD FOR CLASSIFYING THE UTILITY OF DRUG COMBINATIONS IN TREATMENT OF SAID SUBJECT” (priority 2018, published 2021)
